According to ChEMBL document CHEMBL3885861, “Open TG-GATES”:

Species: Rattus norvegicus
Test: Open TG-GATES - Regimen: Daily Repeat
Assay type: toxicity, organism-based, Sprague-Dawley
Set-up: regimen Daily Repeat, gender Male, age 6 weeks
Settings: in vivo, po, 300 mg/kg, route gavage, dose level Middle; for APTT / Bas / Eos / Fbg / Hb / Ht / Lym / MCH / MCHC / MCV / Mono / Neu / PT / Plat / RBC / Ret / WBC: tissue Blood; for KIDNEY_L / KIDNEY_R / KIDNEY_TOTAL: tissue Kidney; for LIVER: tissue Liver; for A/G / ALP / ALT / AST / BUN / CRE / Ca / Cl / DBIL / GLC / IP / K / LDH / Na / PL / RALB / TBIL / TC / TG / TP / gamma-GTP: tissue Plasma

CNC(=C[N+](=O)[O-])NCCSCc1ccc(CN(C)C)o1 [RANITIDINE]
TERMINAL_BW (72 h, time 3 day): 231.7 g | APTT (72 h, time 3 day): 20.3 s | Bas (72 h, time 3 day): 0% | Eos (72 h, time 3 day): 1% | Fbg (72 h, time 3 day): 234.4 mg/dL | Hb (72 h, time 3 day): 13.5 g/dL | Ht (72 h, time 3 day): 39.4% | Lym (72 h, time 3 day): 78.8% | MCH (72 h, time 3 day): 21.9 pg | MCHC (72 h, time 3 day): 34.3% | MCV (72 h, time 3 day): 63.8 fL | Mono (72 h, time 3 day): 3.2% | Neu (72 h, time 3 day): 15.8% | PT (72 h, time 3 day): 12.4 s | Plat (72 h, time 3 day): 118.4 x10_4/uL | RBC (72 h, time 3 day): 616.4 x10_4/ul | Ret (72 h, time 3 day): 5.1% | WBC (72 h, time 3 day): 112.2 x10_2/uL | KIDNEY_L (72 h, time 3 day): 1 g | KIDNEY_R (72 h, time 3 day): 1 g | KIDNEY_TOTAL (72 h, time 3 day): 2 g | LIVER (72 h, time 3 day): 11.1 g | A/G (72 h, time 3 day): 1.6 | ALP (72 h, time 3 day): 966.2 IU/L | ALT (72 h, time 3 day): 43.4 IU/L | AST (72 h, time 3 day): 80 IU/L | BUN (72 h, time 3 day): 14.8 mg/dL | CRE (72 h, time 3 day): 0.4 mg/dL | Ca (72 h, time 3 day): 10.9 mg/dL | Cl (72 h, time 3 day): 104 meq/L | DBIL (72 h, time 3 day): 0.09 mg/dL | GLC (72 h, time 3 day): 196.6 mg/dL | IP (72 h, time 3 day): 7.2 mg/dL | K (72 h, time 3 day): 4.2 meq/L | LDH (72 h, time 3 day): 195.6 IU/L | Na (72 h, time 3 day): 141.2 meq/L | PL (72 h, time 3 day): 142.8 mg/dL | RALB (72 h, time 3 day): 3.4 g/dL | TBIL (72 h, time 3 day): 0.1 mg/dL | TC (72 h, time 3 day): 78.4 mg/dL | TG (72 h, time 3 day): 80 mg/dL | TP (72 h, time 3 day): 5.5 g/dL | gamma-GTP (72 h, time 3 day): 1.8 IU/L | TERMINAL_BW ([…], time 7 day): 260.6 g | TERMINAL_BW ([…], time 14 day): 309.4 g | TERMINAL_BW ([…], time 28 day): 391.7 g | APTT ([…], time 7 day): 20.6 s | Bas ([…], time 7 day): 0% | Eos ([…], time 7 day): 1% | Fbg ([…], time 7 day): 227.4 mg/dL | Hb ([…], time 7 day): 14.1 g/dL | Ht ([…], time 7 day): 39.9% | Lym ([…], time 7 day): 83.6% | MCH ([…], time 7 day): 22 pg | MCHC ([…], time 7 day): 35.5% | MCV ([…], time 7 day): 62 fL | Mono ([…], time 7 day): 1.6% | Neu ([…], time 7 day): 12.4% | PT ([…], time 7 day): 12.4 s | Plat ([…], time 7 day): 130.4 x10_4/uL | RBC ([…], time 7 day): 644.2 x10_4/ul | Ret ([…], time 7 day): 4.8% | WBC ([…], time 7 day): 81.6 x10_2/uL | APTT ([…], time 14 day): 19.1 s | Bas ([…], time 14 day): 0% | Eos ([…], time 14 day): 0.8% | Fbg ([…], time 14 day): 239.2 mg/dL | Hb ([…], time 14 day): 14.6 g/dL | Ht ([…], time 14 day): 40.6% | Lym ([…], time 14 day): 76.8% | MCH ([…], time 14 day): 21.3 pg | MCHC ([…], time 14 day): 36% | MCV ([…], time 14 day): 59.2 fL | Mono ([…], time 14 day): 2.4% | Neu ([…], time 14 day): 18.4% | PT ([…], time 14 day): 12.1 s | Plat ([…], time 14 day): 117.4 x10_4/uL | RBC ([…], time 14 day): 687.2 x10_4/ul | Ret ([…], time 14 day): 3.9% | WBC ([…], time 14 day): 111.2 x10_2/uL | APTT ([…], time 28 day): 21 s | Bas ([…], time 28 day): 0% | Eos ([…], time 28 day): 1.2% | Fbg ([…], time 28 day): 216.2 mg/dL | Hb ([…], time 28 day): 15.3 g/dL | Ht ([…], time 28 day): 43.2% | Lym ([…], time 28 day): 81.4% | MCH ([…], time 28 day): 20.5 pg | MCHC ([…], time 28 day): 35.4% | MCV ([…], time 28 day): 58.1 fL | Mono ([…], time 28 day): 1.8% | Neu ([…], time 28 day): 14% | PT ([…], time 28 day): 12.3 s | Plat ([…], time 28 day): 110 x10_4/uL | RBC ([…], time 28 day): 747 x10_4/ul | Ret ([…], time 28 day): 2.2% | WBC ([…], time 28 day): 117.7 x10_2/uL | KIDNEY_L ([…], time 7 day): 1.1 g | KIDNEY_R ([…], time 7 day): 1.1 g | KIDNEY_TOTAL ([…], time 7 day): 2.2 g | KIDNEY_L ([…], time 14 day): 1.2 g | KIDNEY_R ([…], time 14 day): 1.2 g | KIDNEY_TOTAL ([…], time 14 day): 2.4 g | KIDNEY_L ([…], time 28 day): 1.4 g | KIDNEY_R ([…], time 28 day): 1.5 g | KIDNEY_TOTAL ([…], time 28 day): 2.9 g | LIVER ([…], time 7 day): 11.7 g | LIVER ([…], time 14 day): 13.8 g | LIVER ([…], time 28 day): 16.3 g | A/G ([…], time 7 day): 1.5 | ALP ([…], time 7 day): 802.2 IU/L | ALT ([…], time 7 day): 33.2 IU/L | AST ([…], time 7 day): 61.4 IU/L | BUN ([…], time 7 day): 14.6 mg/dL | CRE ([…], time 7 day): 0.4 mg/dL | Ca ([…], time 7 day): 10.6 mg/dL | Cl ([…], time 7 day): 103.8 meq/L | DBIL ([…], time 7 day): 0.084 mg/dL | GLC ([…], time 7 day): 211.6 mg/dL | IP ([…], time 7 day): 7.5 mg/dL | K ([…], time 7 day): 3.8 meq/L | LDH ([…], time 7 day): 159.2 IU/L | Na ([…], time 7 day): 141 meq/L | PL ([…], time 7 day): 138.2 mg/dL | RALB ([…], time 7 day): 3.4 g/dL | TBIL ([…], time 7 day): 0.1 mg/dL | TC ([…], time 7 day): 72.8 mg/dL | TG ([…], time 7 day): 83 mg/dL | TP ([…], time 7 day): 5.7 g/dL | gamma-GTP ([…], time 7 day): 1.4 IU/L | A/G ([…], time 14 day): 1.4 | ALP ([…], time 14 day): 849.4 IU/L | ALT ([…], time 14 day): 36.4 IU/L | AST ([…], time 14 day): 70.4 IU/L | BUN ([…], time 14 day): 17.4 mg/dL | CRE ([…], time 14 day): 0.5 mg/dL | Ca ([…], time 14 day): 10.6 mg/dL | Cl ([…], time 14 day): 103.6 meq/L | DBIL ([…], time 14 day): 0.098 mg/dL | GLC ([…], time 14 day): 203.8 mg/dL | IP ([…], time 14 day): 7.1 mg/dL | K ([…], time 14 day): 4 meq/L | LDH ([…], time 14 day): 228.8 IU/L | Na ([…], time 14 day): 142.2 meq/L | PL ([…], time 14 day): 151.6 mg/dL | RALB ([…], time 14 day): 3.5 g/dL | TBIL ([…], time 14 day): 0.2 mg/dL | TC ([…], time 14 day): 68.6 mg/dL | TG ([…], time 14 day): 142.4 mg/dL | TP ([…], time 14 day): 6 g/dL | gamma-GTP ([…], time 14 day): 1 IU/L | A/G ([…], time 28 day): 1.3 | ALP ([…], time 28 day): 642.2 IU/L | ALT ([…], time 28 day): 34.6 IU/L | AST ([…], time 28 day): 60.2 IU/L | BUN ([…], time 28 day): 18 mg/dL | CRE ([…], time 28 day): 0.5 mg/dL | Ca ([…], time 28 day): 10.5 mg/dL | Cl ([…], time 28 day): 102.8 meq/L | DBIL ([…], time 28 day): 0.1 mg/dL | GLC ([…], time 28 day): 200 mg/dL | IP ([…], time 28 day): 6.9 mg/dL | K ([…], time 28 day): 3.6 meq/L | LDH ([…], time 28 day): 112 IU/L | Na ([…], time 28 day): 141.2 meq/L | PL ([…], time 28 day): 138.4 mg/dL | RALB ([…], time 28 day): 3.4 g/dL | TBIL ([…], time 28 day): 0.2 mg/dL | TC ([…], time 28 day): 64.6 mg/dL | TG ([…], time 28 day): 125.6 mg/dL | TP ([…], time 28 day): 6.1 g/dL | gamma-GTP ([…], time 28 day): 1 IU/L
